Molecular target: PIK3CD (Human) (UniProt O00329)
Assay: Enzyme Assay

PIK3CD (Human), sequence (O00329 whole entry, looked up): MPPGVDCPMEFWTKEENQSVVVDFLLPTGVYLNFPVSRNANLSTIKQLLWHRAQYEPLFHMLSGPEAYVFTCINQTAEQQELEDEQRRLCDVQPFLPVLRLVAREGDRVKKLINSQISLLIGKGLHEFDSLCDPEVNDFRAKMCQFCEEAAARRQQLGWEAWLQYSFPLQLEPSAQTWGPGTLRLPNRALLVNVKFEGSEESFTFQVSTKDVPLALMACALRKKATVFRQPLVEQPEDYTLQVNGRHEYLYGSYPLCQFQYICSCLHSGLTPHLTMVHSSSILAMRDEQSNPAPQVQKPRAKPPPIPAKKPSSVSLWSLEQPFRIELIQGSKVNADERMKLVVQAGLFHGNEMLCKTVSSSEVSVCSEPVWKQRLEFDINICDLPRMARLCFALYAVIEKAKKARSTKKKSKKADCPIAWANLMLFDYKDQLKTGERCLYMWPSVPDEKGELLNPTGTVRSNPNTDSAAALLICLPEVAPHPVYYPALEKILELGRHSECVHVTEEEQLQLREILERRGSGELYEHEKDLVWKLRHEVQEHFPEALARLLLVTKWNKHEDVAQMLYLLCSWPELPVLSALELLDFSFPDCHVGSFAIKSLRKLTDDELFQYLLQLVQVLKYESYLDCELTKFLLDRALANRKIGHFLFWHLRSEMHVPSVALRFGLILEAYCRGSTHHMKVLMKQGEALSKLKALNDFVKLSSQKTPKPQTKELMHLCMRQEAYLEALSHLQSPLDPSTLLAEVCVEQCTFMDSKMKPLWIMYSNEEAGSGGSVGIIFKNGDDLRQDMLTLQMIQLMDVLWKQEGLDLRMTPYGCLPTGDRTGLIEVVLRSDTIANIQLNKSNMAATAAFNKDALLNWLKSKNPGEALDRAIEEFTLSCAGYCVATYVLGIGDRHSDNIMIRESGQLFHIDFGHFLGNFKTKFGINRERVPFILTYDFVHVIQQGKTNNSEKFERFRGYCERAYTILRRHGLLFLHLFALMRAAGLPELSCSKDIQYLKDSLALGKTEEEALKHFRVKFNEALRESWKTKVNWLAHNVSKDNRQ

`Cc1ccc(F)c2nc([C@H](C)Nc3nc(N)nc(N)c3C#N)n(-c3cc(F)cc(C#N)c3)c(=O)c12` and `Cc1ccc(F)c2nc([C@H](C)Nc3nc(N)nc(N)c3C#N)n(-c3cc(F)cc(F)c3)c(=O)c12` cannot be ordered by IC50: 1 to 10 nM for the first, at most 1 nM for the second.

`C[C@H](Nc1nc(N)nc(N)c1C#N)c1nc2cccc(Cl)c2c(=O)n1-c1cc(F)cc(C#N)c1` and `C[C@H](Nc1nc(N)nc(N)c1C#N)c1nc2cccc(Cl)c2c(=O)n1-c1cc(F)cc(Cl)c1` fall in the same range of IC50: 1 to 10 nM for the first, 1 to 10 nM for the second.

`CC[C@H](C)[C@H](Nc1nc(N)nc(N)c1C#N)c1nc2cccc(Cl)c2c(=O)n1-c1cc(F)cc(F)c1` and `C[C@H](Nc1nc(N)nc(N)c1C#N)c1nc2cccc(Cl)c2c(=O)n1-c1cc(F)cc(C(F)F)c1` cannot be ordered by IC50: 1 to 10 nM for the first, at most 1 nM for the second.

`CC(C)[C@H](Nc1nc(N)nc(N)c1C#N)c1nc2cccc(Cl)c2c(=O)n1-c1ccccc1` and `C[C@H](Nc1nc(N)nc(N)c1C#N)c1nc2cccc(Cl)c2c(=O)n1-c1ccccc1` cannot be ordered by IC50: at most 1 nM for the first, at most 1 nM for the second.

First: Cc1cccc2c(=O)n(-c3cc(F)cc(F)c3)c([C@H](C)Nc3nc(N)nc(N)c3C#N)nc12
Second: CC[C@H](Nc1nc(N)nc(N)c1C#N)c1nc2c(C)cccc2c(=O)n1-c1cc(F)cc(F)c1
The IC50 of the first is lower: 1 to 10 nM for the first, 10 to 50 nM for the second. The first is the more potent here.

`C[C@H](Nc1nc(N)nc(N)c1C#N)c1nc2cccc(S(C)(=O)=O)c2c(=O)n1-c1ccccc1` and `C[C@H](Nc1nc(N)nc(N)c1C#N)c1nc2cccc(S(C)(=O)=O)c2c(=O)n1-c1cccc(F)c1` fall in the same range of IC50: 1 to 10 nM for the first, 1 to 10 nM for the second.

`CC[C@H](Nc1nc(N)nc(N)c1C#N)c1nc2c(C)ccc(F)c2c(=O)n1-c1cc(F)cc(F)c1` and `CC[C@H](Nc1nc(N)nc(N)c1C#N)c1nc2c(Cl)ccc(F)c2c(=O)n1-c1cc(F)cc(F)c1` fall in the same range of IC50: 10 to 50 nM for the first, 10 to 50 nM for the second.

`COc1cc(OC)cc(-n2c([C@H](C)Nc3nc(N)nc(N)c3C#N)nc3cccc(Cl)c3c2=O)c1` and `C[C@H](Nc1nc(N)nc(N)c1C#N)c1nc2cccc(Cl)c2c(=O)n1-c1cc(F)cc(OC(F)(F)F)c1` fall in the same range of IC50: 1 to 10 nM for the first, 1 to 10 nM for the second.

First: CC[C@H](Nc1nc(N)nc(N)c1C#N)c1nc2c(F)cccc2c(=O)n1-c1cc(F)cc(F)c1
Second: CC[C@H](Nc1nc(N)nc(N)c1C#N)c1nc2ccccc2c(=O)n1-c1cc(F)cc(F)c1
The IC50 of the first is lower: 1 to 10 nM for the first, 10 to 50 nM for the second.

`C[C@H](Nc1nc(N)nc(N)c1C#N)c1nc2c(C#N)cccc2c(=O)n1-c1ccccc1` and `C[C@H](Nc1nc(N)nc(N)c1C#N)c1nc2cccc(F)c2c(=O)n1-c1ccccc1` fall in the same range of IC50: 1 to 10 nM for the first, 1 to 10 nM for the second.

`C[C@H](Nc1nc(N)nc(N)c1C#N)c1nc2cccc(C(N)=O)c2c(=O)n1-c1ccccc1` and `C[C@H](Nc1nc(N)nc(N)c1C#N)c1nc2cccc(C(F)F)c2c(=O)n1-c1ccccc1` cannot be ordered by IC50: 1 to 10 nM for the first, at most 1 nM for the second.

`C[C@H](Nc1nc(N)nc(N)c1C#N)c1nc2c(F)ccc(F)c2c(=O)n1-c1cc(F)cc(F)c1` and `Cc1ccc(F)c2c(=O)n(-c3cc(F)cc(F)c3)c([C@H](C)Nc3nc(N)nc(N)c3C#N)nc12` fall in the same range of IC50: 1 to 10 nM for the first, 1 to 10 nM for the second.

First: C[C@H](Nc1nc(N)nc(N)c1C#N)c1nc2cccc(C#N)c2c(=O)n1-c1cccc(F)c1
Second: C[C@H](Nc1nc(N)nc(N)c1C#N)c1nc2cccc(F)c2c(=O)n1-c1cccc(C#N)c1
The IC50 of the first is lower: 1 to 10 nM for the first, 10 to 50 nM for the second.

First: C[C@H](Nc1nc(N)nc(N)c1C#N)c1nc2ccc(F)cc2c(=O)n1-c1cccc(Cl)c1
Second: C[C@H](Nc1nc(N)nc(N)c1C#N)c1nc2ccccc2c(=O)n1-c1cc(F)cc(F)c1
The IC50 of the first is lower: 1 to 10 nM for the first, 10 to 50 nM for the second.

First: C[C@H](Nc1nc(N)nc(N)c1C#N)c1nc2c(F)cc(F)cc2c(=O)n1-c1cc(F)cc(F)c1
Second: Cc1ccc(Cl)c2c(=O)n(-c3cc(F)cc(F)c3)c([C@H](C)Nc3nc(N)nc(N)c3C#N)nc12
The IC50 of the first is higher: 10 to 50 nM for the first, 1 to 10 nM for the second.

`C[C@H](Nc1nc(N)nc(N)c1C#N)c1nc2cccc(F)c2c(=O)n1-c1cccc(C(F)F)c1` and `C[C@H](Nc1nc(N)nc(N)c1C#N)c1nc2cccc(F)c2c(=O)n1-c1cccc(CC(F)F)c1` fall in the same range of IC50: 1 to 10 nM for the first, 1 to 10 nM for the second.

`CC[C@H](Nc1nc(N)nc(N)c1C#N)c1nc2c(F)ccc(F)c2c(=O)n1-c1cccc(F)c1` and `C[C@H](Nc1nc(N)nc(N)c1C#N)c1nc2c(Cl)ccc(Cl)c2c(=O)n1-c1ccccc1` cannot be ordered by IC50: 1 to 10 nM for the first, at most 1 nM for the second.
